According to US20120009151A1, “Triazines And Related Compounds Having Antiviral Activity, Compositions And Methods Thereof” (priority 2007, published 2012):
Where a name gives a salt, the structure may show the parent alone.

Tested on: not given
Assay: not given
Conditions: not given

Structure (SMILES) | melting point [°C]
Fc1ccc(CNc2nc(OCC(F)(F)F)nc(-c3ccccc3)n2)cc1 | 170 to 172
Fc1ccc(CNc2nc(NCc3ccccc3F)nc(OCC(F)(F)F)n2)cc1 | 105 to 107
Fc1ccc(CNc2nc(OCC(F)(F)F)nc(Oc3cccc(C(F)(F)F)c3)n2)cc1 | 107 to 109
Fc1ccc(CNc2nc(OCc3ccccc3)nc(OCC(F)(F)F)n2)cc1 | 101 to 103
CC(C)N1CCC(Nc2nc(NCc3ccc(F)cc3)nc(OCC(F)(F)F)n2)C1 (stereo not shown) | 98 to 99
CCOc1nc(NCc2ccco2)nc(N2CCN(Cc3ccccn3)CC2)n1 | 115 to 117
Cc1ccc(CNc2nc(OCC(F)(F)F)nc(Oc3cccc(C(F)(F)F)c3)n2)o1 | 116 to 118
Oc1ccc(Nc2nc(NCc3ccco3)nc(Oc3ccc(O)cc3)n2)cc1 | 80 to 83
Fc1ccc(CNc2nc(Nc3cccc(Cl)c3)nc(OCC(F)(F)F)n2)cc1 | 148 to 150
FC(F)(F)c1cccc(Nc2nc(NCc3ccco3)nc(OCc3ccncc3)n2)c1 | 124 to 126
Oc1nc(NCc2ccc(F)cc2)nc(Nc2cccc(C(F)(F)F)c2)n1 | 266 to 268
CCNc1nc(NCCN2CCCC2)nc(Nc2ccc(OC)cc2)n1 (as salt: hydrochloride) | 29 to 31

Tested on: H77/JFH-1 chimeric HCVcc
Assay: HCV cell culture (HCVcc) model, Renilla luciferase
Assay type: cell-based
Conditions: H77/JFH-1 HCVcc, Huh 7.5 cells, Renilla luciferase 72 hours post-infection

Structure (SMILES) | EC50 [nM]
C[C@@]1(O)[C@H](O)[C@@H](CO)O[C@H]1n1cnc2c(N)ncnc21 [Compound 2-CMA] | 92
